Experiments:
Format in all cases: cell-based
[1] = tested on: sheep intervertebral disc nucleus pulposus cells; assay: Alcian blue assay of proteoglycan synthesis, sheep cells; conditions: 10 ng/ml
Procedure: Human intervertebral disc cells from Example 9 were seeded and grown in 24 well plates in TCM in the presence or absence of exogenous growth factors. At various time points, TCM was aspirated out from the wells and the wells washed 3 times with PBS. The cells were then fixed with 4% paraformaldehyde (pH 7.4) for 10 min. The fixed cells were washed 2 times with PBS and then stained overnight with 0.5% Alcian blue in 0.1N hydrochloric acid (pH 1.5). After overnight staining, excess stain was rinsed out with 3 rinses of PBS. The remaining Alcian blue stain (bound to proteoglycans) was dissolved overnight into 6 M guanidine hydrochloride and the absorbance at 630 nm was measured using a spectrophotometer, providing an indication of the induction of matrix production by exogenous growth factors in human nucleus pulposus cells. […]
Transforming growth factor-β1 (TGF-β1) and a mixture of bone-derived protein growth factors (BP) produced according to U.S. Pat. Nos. 5,290,763, 5,371,191 and 5,563,124, were tested for their effects on stimulation of proteoglycan synthesis in ovine nucleus pulposus cells. […] At these time points, the cells were fixed and the amount of proteoglycan synthesis was measured by the Alcian blue assay as described in Example 10.

[2] = tested on: sheep intervertebral disc nucleus pulposus cells; assay: ELISA of Type II collagen and chondroitin-6-sulfate production; conditions: 7 days, 10 ng/ml
Procedure: To detect specific antigenic epitopes in the synthesized matrix, sheep intervertebral nucleus pulposus cells from Example 9, seeded and grown in monolayer, were fixed in 2% glutaraldehyde for 1 hour at room temperature. The fixed cells were washed 3 times with TBS for 5 min. each. To block non-specific antibody binding, the cells were incubated in a solution of Tris buffered saline (TBS) containing 1 mM ethylene-diamine-tetraacetic acid (EDTA), 0.05% Tween-20™, and 0.25% bovine serum albumin for 1 hour. The blocking step was followed by 3 washes with TBS for 5 min. each. The cells were incubated with the primary antibody at room temperature for 2.5 hours, and the excess primary antibody was removed by 3 washes with TBS for 5 min. each. A second incubation with blocking buffer was performed for 10 min., followed by 3 washes with TBS. […] The bound primary and secondary antibodies were detected by addition of an enzyme-specific substrate which produced a colored reaction. The colorimetric measurement was performed using a spectrophotometer, providing a quantitative measure of the presence of the bound antibodies. […]
After incubation with growth factors for 7 days, cell cultures were fixed in 2% glutaraldehyde and the quantity of Type II collagen and chondroitin-6-sulfate produced in the cell cultures was detected by ELISA according to the procedure described in Example 11. […]

[3] = tested on: human intervertebral disc nucleus pulposus cells; assay: Alcian blue assay of proteoglycan synthesis, human cells; conditions: 10 ng/ml
Procedure: (§1) Human intervertebral disc cells from Example 9 were seeded and grown in 24 well plates in TCM in the presence or absence of exogenous growth factors. At various time points, TCM was aspirated out from the wells and the wells washed 3 times with PBS. The cells were then fixed with 4% paraformaldehyde (pH 7.4) for 10 min. The fixed cells were washed 2 times with PBS and then stained overnight with 0.5% Alcian blue in 0.1N hydrochloric acid (pH 1.5). After overnight staining, excess stain was rinsed out with 3 rinses of PBS. The remaining Alcian blue stain (bound to proteoglycans) was dissolved overnight into 6 M guanidine hydrochloride and the absorbance at 630 nm was measured using a spectrophotometer, providing an indication of the induction of matrix production by exogenous growth factors in human nucleus pulposus cells.
TGF-β1 and BP were tested for their effects on stimulation of proteoglycan synthesis in human nucleus cells. Human intervertebral disc nucleus pulposus cells obtained from Disc L5-S1 of a patient were cultured as described in Examples 8 and 9 and seeded into 24-well plates. After the cells adhered to the well surface, multiple dilutions of different growth factors were added. The concentrations of growth factors tested were 10 ng/ml TGF-β1, and 10 and 20 μg/ml of BP. The dilutions were prepared in TCM. The cells were fixed after 5 and 8 days of continuous exposure to growth factors and proteoglycans synthesized were detected by the Alcian blue assay as described in Example 10.
A second experiment to test the effects of TGF-β1 and BP on proteoglycan synthesis was performed on a different human patient from that described in Example 14. Human intervertebral disc cells obtained from another patient were cultured as described in Examples 8 and 9 and seeded into 24 well plates. Growth factors were added after the cells were allowed to adhere overnight. […] After 6 and 9 days the cells were fixed and the amount of proteoglycans synthesized was measured by the Alcian blue assay as described in Example 10.

[4] = tested on: baboon intervertebral disc nucleus pulposus cells; assay: Alcian blue assay of proteoglycan synthesis, baboon cells; conditions: 8 days, 10 ng/ml
Procedure: as §1
The foregoing procedure was also applied to sheep and baboon intervertebral nucleus pulposus cells from Example 9 to obtain an indication of the induction of matrix production by exogenous growth factors in sheep and baboon nucleus pulposus cells.
TGF-β1 and BP were tested for their effects on stimulation of proteoglycan synthesis in baboon nucleus cells. […] The cells were fixed after 4 and 8 days of continuous exposure to growth factors, and proteoglycan synthesis was detected by the Alcian blue assay as described in Example 10.

[5] = tested on: Sheep nucleus cells (SNCs)
Procedure: The monomer solution was poured into molds and photo-polymerized using long-wave ultraviolet light at 365 nm wavelength. Polymerized hydrogels were placed into tissue culture inserts which were then placed above seeded SNCs. Cytotoxicity of unpolymerized matrix was also determined, by including inserts containing unpolymerized monomer solution. SNC seeded wells containing empty inserts served as controls. SNCs and inserts were completely immersed in TCM. […] The MTS assay measures viability of cells by a calorimetric method, wherein the MTS tetrazolium compound is bio reduced by cells into a colored formazan product which is soluble in TCM. The conversion is accomplished by dehydrogenase enzymes present in metabolically active cells.

[6] = tested on: Sheep nucleus chondrocytes; assay: MTT cytotoxicity of the photo-initiating system
Procedure: Sheep nucleus chondrocytes were seeded in a 12-well plate at 20,000 cells/well and incubated with TCM. After allowing cells to adhere for over 48 hours, spent media was replaced with TCM containing 0 or 1000 ppm Irgacure 2959. SNCs were then exposed to long wave ultraviolet light at 365 nm wavelength for different lengths of time, followed by incubation at 37° C. MTT assay was performed at 1, 5, and 24 hours post UV exposure to assess viability of cells. The principle of the assay is similar to the MTS assay mentioned before, except that a different tetrazolium compound is used in this method.

Compound	increase in proteoglycan synthesis above 0.5% serum control ([1]; 7 day)	increase in proteoglycan synthesis above 0.5% serum control ([1]; 10 day) [%]	increased production of Type II collagen over controls [2] [%]	increased production of chondroitin-6-sulfate over controls [2] [%]	increase in Alcian blue staining over the control ([3]; Example 14 patient, 8 days) [%]	more proteoglycans than control ([3]; Example 15 patient, 6 days) [%]	increased proteoglycan production over controls ([3]; Example 15 patient, 9 days) [%]	increase in proteoglycan synthesis over the control [4] [%]	cytotoxicity (MTS, absorbance at 570 nm) [5]	cytotoxicity (MTT) ([6]; 1000 ppm in TCM, by itself (no free radical production), FIG. 29: 24 hours post-UV)	cell death by free radicals from UV light with Irgacure 2959 (MTT) ([6]; 1000 ppm plus 365 nm UV for different lengths of time)
Transforming growth factor-β1 [TGF-β1]	not significant	52	115	800	42	54	74	21			
C=CN1CCCCCC1=O [vinyl caprolactam]									cytocompatible		
CC(C)(O)C(=O)c1ccc(OCCO)cc1 [Irgacure 2959]									cytocompatible	not significantly cytotoxic	significant only at 5 and 10 min of UV exposure

Source: US20070003525A1, “Hydrogel compositions comprising nucleus pulposus tissue” (priority 2003, published 2007)
